In PubChem BioAssay AID250 (DTP/NCI, 2004):
Where “and” joins values, the source holds several entries; their conditions need not be identical. Equal values may be shown once. Inconclusive results and toxic doses are left out.

System: BDF1 mice, L1210 leukemia sc, survival T/C
Experiment: NCI In Vivo Anticancer Drug Screen. Data for tumor model L1210 Leukemia (subcutaneous) in B6D2F1 (BDF1) mice
Conditions: vehicle: saline, higher = longer survival
Summary of the method: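 Transplantable tumor-bearing mice; survival or tumor size recorded; result = T/C, treated vs vehicle control.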

In the case of `O=c1[nH]cc(F)c(=O)[nH]1`, the T/C (endpoint: mean survival time, dose: 65.0 mg/kg/injection, schedule: Q07DX009 (sc)) is reported as 112 % of control, the T/C (endpoint: mean survival time, dose: 108.0 mg/kg/injection, schedule: Q07DX009 (sc)) is reported as 99 % of control and the T/C (endpoint: mean survival time, dose: 180.0 mg/kg/injection, schedule: Q07DX009 (sc)) is reported as 113 % of control. For the same compound, the T/C (endpoint: mean survival time, dose: 300.0 mg/kg/injection, schedule: Q07DX009 (sc)) was 162 % of control, the T/C (endpoint: median survival time, dose: 2.5 mg/kg/injection, schedule: Q01DX009 (ip)) was 93 % of control and 100 % of control and the T/C (endpoint: median survival time, dose: 3.0 mg/kg/injection, schedule: Q01DX Z (sc)) was 104 % of control. For the same compound, the T/C (endpoint: median survival time, dose: 3.02 mg/kg/injection, schedule: Q01DX Z (sc)) was 100 % of control, the T/C (endpoint: median survival time, dose: 4.0 mg/kg/injection, schedule: Q01DX Z (sc)) was 105 % of control and the T/C (endpoint: median survival time, dose: 5.0 mg/kg/injection, schedule: Q01DX009 (ip)) was 94 % of control and 100 % of control and 102 % of control. The T/C (endpoint: median survival time, dose: 5.0 mg/kg/injection, schedule: Q01DX009 (sc)) was 103 % of control, the T/C (endpoint: median survival time, dose: 5.0 mg/kg/injection, schedule: Q01DX Z (sc)) was 108 % of control and the T/C (endpoint: median survival time, dose: 5.04 mg/kg/injection, schedule: Q01DX Z (sc)) was 100 % of control. The T/C (endpoint: median survival time, dose: 8.4 mg/kg/injection, schedule: Q01DX009 (ip)) was 110 % of control, the T/C (endpoint: median survival time, dose: 8.4 mg/kg/injection, schedule: Q01DX009 (sc)) was 114 % of control and the T/C (endpoint: median survival time, dose: 8.4 mg/kg/injection, schedule: Q01DX013 (sc)) was 111 % of control. The T/C (endpoint: median survival time, dose: 8.4 mg/kg/injection, schedule: Q01DX Z (sc)) was 105 % of control and 108 % of control and 116 % of control, the T/C (endpoint: median survival time, dose: 10.0 mg/kg/injection, schedule: Q01DX009 (ip)) was 103 % of control and 109 % of control and the T/C (endpoint: median survival time, dose: 14.0 mg/kg/injection, schedule: Q01DX009 (ip)) was 121 % of control. The T/C (endpoint: median survival time, dose: 14.0 mg/kg/injection, schedule: Q01DX013 (sc)) was 150 % of control, the T/C (endpoint: median survival time, dose: 14.0 mg/kg/injection, schedule: Q04DX003 (ip)) was 100 % of control and the T/C (endpoint: median survival time, dose: 14.0 mg/kg/injection, schedule: Q04DX003 (sc)) was 103 % of control. For the same compound, the T/C (endpoint: median survival time, dose: 16.0 mg/kg/injection, schedule: Q01DX Z (sc)) was 122 % of control, the T/C (endpoint: median survival time, dose: 23.0 mg/kg/injection, schedule: Q01DX009 (sc)) was 154 % of control and the T/C (endpoint: median survival time, dose: 23.0 mg/kg/injection, schedule: Q01DX013 (sc)) was 161 % of control and 163 % of control. For the same compound, the T/C (endpoint: median survival time, dose: 23.0 mg/kg/injection, schedule: Q04DX003 (ip)) was 107 % of control, the T/C (endpoint: median survival time, dose: 23.0 mg/kg/injection, schedule: Q04DX003 (sc)) was 102 % of control and the T/C (endpoint: median survival time, dose: 23.3 mg/kg/injection, schedule: Q01DX Z (sc)) was 108 % of control. For the same compound, the T/C (endpoint: median survival time, dose: 38.9 mg/kg/injection, schedule: Q01DX Z (sc)) was 100 % of control, the T/C (endpoint: median survival time, dose: 39.0 mg/kg/injection, schedule: Q01DX009 (ip)) was 109 % of control and the T/C (endpoint: median survival time, dose: 39.0 mg/kg/injection, schedule: Q01DX009 (sc)) was 121 % of control. The T/C (endpoint: median survival time, dose: 39.0 mg/kg/injection, schedule: Q01DX013 (sc)) was 166 % of control and 167 % of control, the T/C (endpoint: median survival time, dose: 39.0 mg/kg/injection, schedule: Q01DX Z (sc)) was 163 % of control and 175 % of control and the T/C (endpoint: median survival time, dose: 64.0 mg/kg/injection, schedule: Q01DX Z (sc)) was 161 % of control. The T/C (endpoint: median survival time, dose: 65.0 mg/kg/injection, schedule: Q01DX009 (ip)) was 101 % of control, the T/C (endpoint: median survival time, dose: 65.0 mg/kg/injection, schedule: Q01DX009 (sc)) was 107 % of control and the T/C (endpoint: median survival time, dose: 65.0 mg/kg/injection, schedule: Q04DX003 (sc)) was 151 % of control. The T/C (endpoint: median survival time, dose: 65.0 mg/kg/injection, schedule: Q07DX009 (sc)) was 114 % of control, the T/C (endpoint: median survival time, dose: 65.0 mg/kg/injection, schedule: Q07DX Z (sc)) was 115 % of control and the T/C (endpoint: median survival time, dose: 108.0 mg/kg/injection, schedule: Q01DX Z (sc)) was 91 % of control. The T/C (endpoint: median survival time, dose: 108.0 mg/kg/injection, schedule: Q04DX003 (ip)) was 173 % of control, the T/C (endpoint: median survival time, dose: 108.0 mg/kg/injection, schedule: Q04DX003 (sc)) was 187 % of control and the T/C (endpoint: median survival time, dose: 108.0 mg/kg/injection, schedule: Q07DX009 (sc)) was 102 % of control. The T/C (endpoint: median survival time, dose: 108.0 mg/kg/injection, schedule: Q07DX Z (sc)) was 105 % of control, the T/C (endpoint: median survival time, dose: 128.0 mg/kg/injection, schedule: Q01DX Z (sc)) was 155 % of control and the T/C (endpoint: median survival time, dose: 180.0 mg/kg/injection, schedule: Q01DX Z (sc)) was 120 % of control. For the same compound, the T/C (endpoint: median survival time, dose: 180.0 mg/kg/injection, schedule: Q04DX003 (ip)) was 121 % of control, the T/C (endpoint: median survival time, dose: 180.0 mg/kg/injection, schedule: Q04DX003 (sc)) was 184 % of control and the T/C (endpoint: median survival time, dose: 180.0 mg/kg/injection, schedule: Q07DX009 (sc)) was 114 % of control. For the same compound, the T/C (endpoint: median survival time, dose: 180.0 mg/kg/injection, schedule: Q07DX Z (sc)) was 115 % of control, the T/C (endpoint: median survival time, dose: 300.0 mg/kg/injection, schedule: Q07DX009 (sc)) was 169 % of control and the T/C (endpoint: median survival time, dose: 300.0 mg/kg/injection, schedule: Q07DX Z (sc)) was 168 % of control.
